Earlier results on five compounds are cited in patent US9707278B2, “Methods of modulating immune responses by modifying Akt3 bioactivity” (Augusta University Research Institute, Inc., priority 2014, dated 2017).

What is called IC50 is the point on the concentration scale where inhibition reaches its midpoint.

The conditions of data set [1]: human, in vivo.
The target in the next data set is p70S6K (Homo sapiens, UniProt P23443).
The next data set addresses PKA (Homo sapiens, UniProt P17612).
Data set [2] relates to 250 other protein kinases.
For data set [3] the following is noted: patients with advanced solid tumors.
The conditions of data set [4]: patients with advanced solid tumors. The source holds these as a separate data set.

Chain of p70S6K (P23443 whole entry): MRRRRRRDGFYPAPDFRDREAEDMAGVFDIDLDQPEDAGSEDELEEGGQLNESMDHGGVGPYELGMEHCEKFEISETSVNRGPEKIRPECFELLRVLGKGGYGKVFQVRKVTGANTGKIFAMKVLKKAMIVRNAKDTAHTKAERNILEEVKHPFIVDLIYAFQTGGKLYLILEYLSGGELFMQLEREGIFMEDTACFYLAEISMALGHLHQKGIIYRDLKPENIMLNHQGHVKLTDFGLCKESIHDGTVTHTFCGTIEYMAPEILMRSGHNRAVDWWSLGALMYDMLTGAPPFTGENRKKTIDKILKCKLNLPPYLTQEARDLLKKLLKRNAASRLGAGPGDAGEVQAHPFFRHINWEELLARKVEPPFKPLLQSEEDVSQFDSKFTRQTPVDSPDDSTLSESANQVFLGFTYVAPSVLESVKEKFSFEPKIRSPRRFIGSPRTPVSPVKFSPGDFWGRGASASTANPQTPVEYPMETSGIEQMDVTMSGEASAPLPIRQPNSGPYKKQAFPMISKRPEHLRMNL

Turning to `NC1(C(=O)N[C@@H](CCO)c2ccc(Cl)cc2)CCN(c2ncnc3[nH]ccc23)CC1` [AZD5363], the tolerability entry in data set [1] is on record as “generally well tolerated”.

As for `Clc1ccc(C2(c3ccc(-c4cn[nH]c4)cc3)CCNCC2)cc1` [AT7867], the results for the IC50 on p70S6K and at PKA were 85 nM and 20 nM, respectively.

Take `NC1(c2ccc(-c3nc4ccn5c(=O)[nH]nc5c4cc3-c3ccccc3)cc2)CCC1` [MK-2206 2HCl]: the “inhibitory activities against 250 other protein kinases” value in data set [2] is “no inhibitory activities”.

With `CC(C)NC[C@@H](C(=O)N1CCN(c2ncnc3c2[C@H](C)C[C@H]3O)CC1)c1ccc(Cl)cc1` [GDC-0068], the “single agent maximum tolerated dose” value in data set [3] is given as 600 mg.

`NC1(c2ccc(-c3nc4ccn5c(=O)[nH]nc5c4cc3-c3ccccc3)cc2)CCC1` [MK-2206]: the dose-limiting toxicities entry in data set [4] (30, 60, 75, or 90 mg on alternate days) was “skin rash and stomatitis”. Moreover, the MTD in data set [4] (oral, alternate days) was 60 mg.
